Data from US8927715B2, “Inhibitors of 11β-hydroxysteroid dehydrogenase type 1” (Vitae Pharmaceuticals, Inc., priority 2006, dated 2015).

Molecular target: human 11β-HSD1 (Homo sapiens, UniProt P28845)
Test: Inhibition of a microsomal preparation of 11β-HSD1, SPA (Biological Test Example 2)
Type: biochemical
Design: expressed in transfected cells; host or cells: CHO cells (microsomes)
Conditions: read-out: Biological Test Example 2 (IC50 class)
Procedure: All reactions are carried out at room temperature in 96 well clear flexible PET Microbeta plates (PerkinElmer). […] After a 10 minute pre-incubation, 50 μL of enzyme solution containing microsomes isolated from CHO cells overexpressing human 11β-HSD1 (10-20 μg/ml of total protein) is added, and the plates are then incubated for 90 minutes at room temperature. The reaction is stopped by adding 50 μl of the SPA beads suspension containing […] 18β-glycyrrhetinic acid, 5 mg/ml protein A coated YSi SPA beads (GE Healthcare) and 3.3 μg/ml of anti-cortisol antibody (East Coast Biologics) in Superblock buffer (Bio-Rad). The plates are then shaken for 120 minutes at room temperature, and the SPA signal corresponding to [^3H]cortisol is measured on a Microbeta plate reader.

Chain of human 11β-HSD1 (P28845 whole entry): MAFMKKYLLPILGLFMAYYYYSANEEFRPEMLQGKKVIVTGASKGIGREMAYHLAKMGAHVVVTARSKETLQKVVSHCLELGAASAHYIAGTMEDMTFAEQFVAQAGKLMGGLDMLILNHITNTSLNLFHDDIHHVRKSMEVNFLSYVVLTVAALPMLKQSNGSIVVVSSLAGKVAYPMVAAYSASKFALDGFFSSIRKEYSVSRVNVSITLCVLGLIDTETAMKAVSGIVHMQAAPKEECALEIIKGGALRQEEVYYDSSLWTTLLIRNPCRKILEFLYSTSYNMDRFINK

| IC50 | Structure (SMILES) |
| --- | --- |
| < 50 nM | O=C(O)CCCC(=O)N1CC2(CCN(C(=O)NC3C4CC5CC(C4)CC3C5)CC2)c2ccccc21 (centres unmarked) [Example 93, 5-(1′-(2-Adamantylcarbamoyl)spiro[indoline-3,4′-piperidine]-1-yl)-5-oxopentanoic acid] |
| < 50 nM | CC(C)(CC(=O)O)CC(=O)N1CC2(CCN(C(=O)NC3C4CC5CC(C4)CC3C5)CC2)c2ccccc21 (centres unmarked) [Example 96, 5-(1′-(2-Adamantylcarbamoyl)spiro[indoline-3,4′-piperidine]-1-yl)-3,3-dim ethyl-5-oxopentanoic acid] |
| < 50 nM | CC(C)(CC(=O)N1Cc2ccccc2C2(CCN(C(=O)NC3C4CC5CC(C4)CC3C5)CC2)C1)C(=O)O (centres unmarked) [Example 97, 4-(1′-(2-Adamantylcarbamoyl)-1H-spiro[isoquinoline-4,4′-piperidine]-2(3H)-yl)-2,2-dimethyl-4-oxobutanoic acid] |
| 50 to 1000 nM | CC(C)(CC(=O)O)CC(=O)N1Cc2ccccc2C2(CCN(C(=O)NC3C4CC5CC(C4)CC3C5)CC2)C1 (centres unmarked) [Example 98, 5-(1′-(2-Adamantylcarbamoyl)-1H-spiro[isoquinoline-4,4′-piperidine]-2(3H)-yl)-3,3-dimethyl-5-oxopentanoic acid] |
| 50 to 1000 nM | O=C(O)C1CC1C(=O)N1Cc2ccccc2C2(CCN(C(=O)NC3C4CC5CC(C4)CC3C5)CC2)C1 [Example 99, (1S,2R)-2-(1′42-Adamantylcarbamoyl)-2,3-dihydro-1H-spiro[isoquinoline-4,4′-piperidine]-2-ylcarbonyl)cyclopropanecaxboxylic acid] |
| < 50 nM | C=CCC1OC2(CCN(C(=O)NC3C4CC5CC(C4)CC3C5)CC2)c2c(Cl)cccc21 (centres unmarked) [Example 102, 3-Allyl-7-chloro-N-(2-adamantyl)-3H-spiro[isobenzofuran-1,4′-piperidine]-1′-carboxamide] |
| < 50 nM | CN1C(C)(C)c2ccccc2C12CCN(C(=O)NC1C3CC4CC(C3)CC1C4)CC2 (centres unmarked) [Example 103, N-(2-Adamantyl)-2,3,3-trimethylspiro[isoindoline-1,4′-piperidine]-1′-carboxamide] |
| < 50 nM | CC1(C)NC2(CCN(C(=O)NC3C4CC5CC(C4)CC3C5)CC2)c2c(Cl)cccc21 (centres unmarked) [Example 104, 7-Chloro-N-(2-adamantyl)-3,3-dimethylspiro[isoindoline-1,4′-piperidine]-1′-carboxamide] |
| < 50 nM | CN1C(C)(C)c2cccc(Cl)c2C12CCN(C(=O)NC1C3CC4CC(C3)CC1C4)CC2 (centres unmarked) [Example 105, 7-Chloro-N-(2-adamantyl)-2,3,3-trimethylspiro[isoindoline-1,4′-piperidine]-1′-carboxamide] |
| < 50 nM | COC(=O)CCS(=O)(=O)N1Cc2ccccc2C2(CCN(C(=O)NC3C4CC5CC(C4)CC3C5)CC2)C1 (centres unmarked) [Example 106, Methyl 3-(1′-(2-adamantylcarbamoyl)-1-H-spiro[isoquinoline-4,4′-piperidine]-2(3H)-ylsulfonyl)propanoate] |
| < 50 nM | COC(=O)CCS(=O)(=O)N1Cc2ccccc2C2(CCN(C(=O)OC3C4CC5CC(C4)CC3C5)CC2)C1 (centres unmarked) [Example 107, 2-Adamantyl 2-(3-methoxy-3-oxopropylsulfonyl)-2,3-dihydro-1H-spiro[isoquinoline-4,4′-piperidine]-1′-carboxylate] |
| < 50 nM | O=C(O)CCS(=O)(=O)N1Cc2ccccc2C2(CCN(C(=O)NC3C4CC5CC(C4)CC3C5)CC2)C1 (centres unmarked) [Example 108, 3-(1′-(2-Adamantylcarbamoyl)-1H-spiro[isoquinoline-4,4′-piperidine]-2(3H)-ylsulfonyl)propanoic acid] |
| < 50 nM | O=C(CC1CC2(CCN(C(=O)NC3C4CC5CC(C4)CC3C5)CC2)c2c(Br)cccc21)N1CCNCC1 (centres unmarked) [Example 110, 7-Bromo-N-(2-adamantyl)-3-(2-oxo-2-(piperazin-1-yl)ethyl)-2,3-dihydrospiro[indene-1,4′-piperidine]-1′-carboxamide] |
| < 50 nM | O=C(CC1CC2(CCN(C(=O)NC3C4CC5CC(C4)CC3C5)CC2)c2c(Br)cccc21)N1CCOCC1 (centres unmarked) [Example 111, 7-Bromo-N-(2-adamantyl)-3-(2-morpholino-2-oxoethyl)-2,3-dihydrospiro[indene-1,4′-piperidine]-1′-carboxamide] |
